Assays:
Format in all cases: functional
Conditions in all cases: Rattus norvegicus, 13762, sc; route subcutaneous; read-out: TGI
13762 [1] = experiment: Antitumor activity against rat 13762 cells allografted in Fischer/344 rat assessed as tumor growth inhibition at 10 mg/kg/day, sc for 10 days followed by double the dose every 2 days from day 11 to day 19 relative to vehicle-treated control
13762 [2] = experiment: Antitumor activity against rat 13762 cells allografted in Fischer/344 rat assessed as tumor growth inhibition at 2 mg/kg/day, sc for 10 days followed by double the dose every 2 days from day 11 to day 19 relative to vehicle-treated control
13762 [3] = experiment: Antitumor activity against rat 13762 cells allografted in Fischer/344 rat assessed as tumor growth inhibition at 40 mg/kg/day, sc for 10 days followed by double the dose every 2 days from day 11 to day 19 relative to vehicle-treated control

O=NN(CCCl)C(=O)NC1CCCCC1 [LOMUSTINE]
inhibition in vivo at 10 mg/kg/day 13762 [1]: 80%

CN(N=O)C(=O)NC[C@]1(O)CC[C@H]2[C@@H]3CCc4cc(O)ccc4[C@H]3CC[C@@]21C
inhibition in vivo at 2 mg/kg/day 13762 [2]: 0%
inhibition in vivo at 10 mg/kg/day 13762 [1]: 10%
inhibition in vivo at 40 mg/kg/day 13762 [3]: 23%

C[C@]12CC[C@@H]3c4ccc(O)cc4CC[C@H]3[C@@H]1CC[C@@]2(O)CNC(=O)N(CCCl)N=O
inhibition in vivo at 2 mg/kg/day 13762 [2]: 0%
inhibition in vivo at 10 mg/kg/day 13762 [1]: 35%
inhibition in vivo at 40 mg/kg/day 13762 [3]: 85%

CN(N=O)C(=O)N[C@H]1CC[C@H]2[C@@H]3CCc4cc(O)ccc4[C@H]3CC[C@]12C
inhibition in vivo at 2 mg/kg/day 13762 [2]: 4%
inhibition in vivo at 10 mg/kg/day 13762 [1]: 15%
inhibition in vivo at 40 mg/kg/day 13762 [3]: 15%

C[C@]12CC[C@@H]3c4ccc(O)cc4CC[C@H]3[C@@H]1CC[C@@H]2NC(=O)N(CCCl)N=O
inhibition in vivo at 2 mg/kg/day 13762 [2]: 0%
inhibition in vivo at 10 mg/kg/day 13762 [1]: 50%
inhibition in vivo at 40 mg/kg/day 13762 [3]: 100%

From ChEMBL document CHEMBL3227976, “Synthesis of steroidal nitrosoureas with antitumor activity” (1979)
